According to paper PMC9886892, “Imidazolium salts as an alternative for anti-Leishmania drugs: Oxidative and immunomodulatory activities” (Frontiers in Immunology, 2023):
Where two headings read alike, the source gives them in different places.

How the values were obtained:
[1] = system: L. amazonensis amastigotes in RAW 264.7 macrophages; experiment: Intramacrophage anti-amastigote activity; assay type: cell-based, Leishmania (L.) amazonensis
Method: The anti-amastigote assay was performed as previously described ([13]). Macrophages RAW 264.7 cell line (ATCC) were cultured in DMEM plus 10% fetal bovine serum (FBS), penicillin (100 U/mL) and streptomycin (100 µg/mL) until reaching 90% confluence, when were distributed into 96-well microplates at a concentration of 2 x 10^5 cells/well in the presence of DMEM. […] The leishmanicidal activity of macrophages was assessed by determining the number of viable parasites (4 replicates) using a hemocytometer.

human erythrocytes = details: for RBC50 (CI 95%): concentration of compound that causes 50% of red blood cell hemolysis: 60 min
Method: Triton X-100 1% was used as positive control. The hemolytic assay was performed according to the procedure used by ([13]). […] The microplate was incubated at 37°C under agitation (90 rpm) for 60 min. Then, the suspension was centrifuged at 3,000 rpm for 5 min, and the absorbance of the supernatant was measured at 540 nm using a spectrophotometer EZ Read 400 from Biochrom. Triton X-100 1% and PBS were used as positive and negative control, respectively. […] The selectivity index (SI) (CC50 or RBC50/IC50 against L. amazonensis) were determined for each compound.

[2] = system: Macrophages RAW 264.7 cell line
[3] = system: L. amazonensis promastigotes; experiment: microbe, parasite or virus in culture; details: Leishmania amazonensis, 48 h, read-out: mortality of L. amazonensis promastigotes, 5 µM, 48 h
Method: (§1) Subsequently, 0.5 mg/mL of 3-(4,5-dimethylthiazol-2-yl)-2,5-diphenyltetrazolium bromide (MTT, Sigma-Aldrich®, St. Louis, MO, USA) was added and the incubations continued for an additional 4 h at 26 °C. The purple formazan product that was formed by the action of mitochondrial enzymes in living cells was solubilized by the addition of acidic isopropanol, and the absorbance at 570 nm was measured using a microplate reader spectrophotometer EZ Read 400 from Biochrom. […] The 50% inhibitory concentration (IC50) value for each compound was determined. The survival rate was calculated according to the formula: OD in treated group/OD of untreated group x 100. The 50% inhibitory concentration (IC50) value for each compound was determined by nonlinear regression analysis using GraphPad Prism 5.03 software.

[4] = system: L. infantum chagasi promastigotes; experiment: microbe, parasite or virus in culture; details: Leishmania infantum; for IC50: 48 h, read-out: IC50 (CI 95%): concentration of compound that causes 50% of L. infantum chagasi promastigotes mortality, promastigotes, 48 h, MTT
Method: as §1

[5] = system: L. amazonensis promastigotes; experiment: Mitochondrial membrane potential (rhodamine 123, flow cytometry); assay type: cell-based, Leishmania (L.) amazonensis; details: IS 2-fold IC50, 6 h; amphotericin B 0.4 µM; hydrogen peroxide 2 mM
Description: A total of 30,000 events were acquired in the region that corresponded to the parasites. Histograms were build using the CellQuest Pro software (Joseph Trotter, Scripps Research Institute, La Jolla, CA, USA).

in vitro = details: mouse; for CC50 at 48 h: CC50 (CI 95%): concentration of compound that causes 50% of macrophage mortality
[6] = system: L. amazonensis promastigotes; details: for L. amazonensis mortality in the screening test: 100 µM screening concentration
Method: as §1

[7] = system: L. amazonensis promastigotes; design: method as in PMID 30077823; details: read-out: IC50 for L. amazonensis promastigotes (previous study); cited from earlier work
[8] = system: L. infantum chagasi promastigotes; details: read-out: IC50 (CI 95%): concentration of compound that causes 50% of L. infantum chagasi promastigotes mortality, 48 h, MTT
Method: as §1

[9] = system: L. amazonensis promastigotes; experiment: Detection of reactive oxygen species production (DCF-DA, flow cytometry); assay type: cell-based, Leishmania (L.) amazonensis; details: IS 2-fold IC50, 6 h; amphotericin B 0.4 µM; hydrogen peroxide 2 mM
Method: ROS generation was quantified using the dye 2′,7′-dichlorofluorescein diacetate (DCF-DA, Sigma-Aldrich) and flow cytometer analysis ([13], [30], [31]). […] Then, cells were washed with PBS and incubated with 0.5 mL of 10 µM DCF-DA for 30 min at room temperature. After being washed with PBS, cells were resuspended in 0.5 mL PBS and analysed using a BD FACSCalibur (Becton–Dickinson, Rutherford, NJ, USA) flow cytometer and CellQuest Pro software (Joseph Trotter, Scripps Research Institute, La Jolla, CA, USA) using the blue argon-ion 488 nm laser with the FL1 filter channel. A total of 30,000 events were acquired in the region that corresponded to living parasite.

[10] = Leishmania amazonensis, RAW264.7, 48 h, read-out: IC50 (CI 95%): concentration of compound that causes 50% of L. amazonensis amastigotes mortality, infected RAW 264.7 macrophages, 48 h

With CCCCCCCCCCn1cc[n+](CCCCCCCCCC)c1C.[Cl-] [(C10)2MImCl, 1,3-Didecyl-2-methylimidazolium chloride] the IC50 [1, 10] was 0.2 µM, the “SI: selectivity index, ratio of CC50 for RBC hemolysis/IC50 for L. amazonensis amastigotes” value (human erythrocytes) was 105 and the “SI: selectivity index, ratio of CC50 for RBC hemolysis/IC50 for L. amazonensis promastigotes” value (human erythrocytes) was 11. For the same compound, the “RBC50 (CI 95%): concentration of compound that causes 50% of red blood cell hemolysis” value (“RBC50 (CI 95%): concentration” below) (human erythrocytes; human red blood cells, 37°C) was 20.9 (20-21.9) µM, the “SI: selectivity index, ratio of CC50 for macrophage/IC50 for L. amazonensis amastigotes” value [2] was 82 and the “SI: selectivity index, ratio of CC50 for macrophage/IC50 for L. amazonensis promastigotes” value [2] was 8.6. For the same compound, the mortality at 5 µM [3] was 97%, the IC50 [4] was 16.5 µM and the “mitochondrial membrane potential (ΔΨm) alteration” value [5] was “significant ΔΨm depolarization”. For the same compound, the viability at 48 h (in vitro) was 94%, the CC50 at 48 h (in vitro; RAW cells, 48 h, MTT) was 16.4 µM and the IC50 [6] was 1.9 µM. For the same compound, the “L. amazonensis mortality in the screening test” value (from here on “L. amazonensis mortality”) ([6]; 48 h) was 100%.

With CCCCn1cc[n+](C)c1.CS(=O)(=O)[O-] [C4MImMeS, 1-Butyl-3-methylimidazolium methanesulfonate] the “L. amazonensis mortality” value ([6]; 48 h) was “without activity”.

For CCCCCCCCCCn1cc[n+](C)c1 [C10MImCl, 1-decyl-3-methylimidazolium chloride], the IC50 [4] is given as 115 µM and the IC50 [7] is given as 2.31 µM.

In the case of CCCCCCCCCCn1cc[n+](C)c1.CS(=O)(=O)[O-] [C10MImMeS, 1-decyl-3-methylimidazolium methanesulfonate], the IC50 [1, 10] is reported as 0.3 µM, the “SI: selectivity index, ratio of CC50 for RBC hemolysis/IC50 for L. amazonensis promastigotes” value (human erythrocytes) is reported as greater than 8.6 and the “concentration up to which no significant hemolysis” value (human erythrocytes; human erythrocytes) is reported as “up to 40 µM”. For the same compound, the “RBC50 (CI 95%): concentration” value (human erythrocytes; human red blood cells, 37°C) was greater than 100 µM, the “SI: selectivity index, ratio of CC50 for macrophage/IC50 for L. amazonensis amastigotes” value [2] was 256 and the “SI: selectivity index, ratio of CC50 for macrophage/IC50 for L. amazonensis promastigotes” value [2] was 6.6. For the same compound, the “concentration up to which more than 90% of the macrophages kept alive” value ([2]; mouse, 48 h) was “up to 50 µM”, the mortality at 5 µM [3] was 60% and the “mitochondrial membrane potential (ΔΨm) alteration” value [5] was “ΔΨm hyperpolarization”. It also gave a viability at 48 h (in vitro) of 89%, a CC50 at 48 h (in vitro; RAW cells, 48 h, MTT) of 76.9 µM and an IC50 [6] of 11.6 µM. The “L. amazonensis mortality” value ([6]; 48 h) was 100% and the IC50 [8] was greater than 100 µM.

In the case of CCCCCCCCCCCCCCCCn1ccnc1 [C16Im, 1-hexadecylimidazole], the IC50 [1, 10] is reported as 0.2 µM, the “SI: selectivity index, ratio of CC50 for RBC hemolysis/IC50 for L. amazonensis amastigotes” value (human erythrocytes) is reported as greater than 500 and the “SI: selectivity index, ratio of CC50 for RBC hemolysis/IC50 for L. amazonensis promastigotes” value (human erythrocytes) is reported as greater than 6.8. For the same compound, the “RBC50 (CI 95%): concentration” value (human erythrocytes; human) was greater than 100 µM, the “SI: selectivity index, ratio of CC50 for macrophage/IC50 for L. amazonensis amastigotes” value [2] was 275 and the “SI: selectivity index, ratio of CC50 for macrophage/IC50 for L. amazonensis promastigotes” value [2] was 3.8. The IC50 [4] was 8.3 µM, the CC50 at 48 h (in vitro) was 54.9 µM and the “L. amazonensis mortality” value ([6]; 48 h) was 100%. The “concentration causing significant parasite mortality” value ([6]; L. amazonensis promastigotes, 48 h) was no less than 10 µM.

For CCCCCCCCCCCCCCCCn1cc[n+](C)c1C.[Cl-] [C16M2ImCl, 1-hexadecyl-2,3-dimethylimidazolium chloride], the IC50 [1, 10] was 0.2 µM, the “SI: selectivity index, ratio of CC50 for RBC hemolysis/IC50 for L. amazonensis amastigotes” value (human erythrocytes) was 108 and the “SI: selectivity index, ratio of CC50 for RBC hemolysis/IC50 for L. amazonensis promastigotes” value (human erythrocytes) was 5.3. For the same compound, the “RBC50 (CI 95%): concentration” value (human erythrocytes; human) was 21.6 (20.8-22.5) µM, the “SI: selectivity index, ratio of CC50 for macrophage/IC50 for L. amazonensis amastigotes” value [2] was 99 and the “SI: selectivity index, ratio of CC50 for macrophage/IC50 for L. amazonensis promastigotes” value [2] was 4.8. For the same compound, the mortality at 5 µM [3] was 85%, the IC50 [4] was 15.4 µM and the “mitochondrial membrane potential (ΔΨm) alteration” value [5] was “significant ΔΨm depolarization”. For the same compound, the CC50 at 48 h (in vitro; RAW cells, 48 h, MTT) was 19.8 µM, the IC50 [6] was 4.1 µM and the “L. amazonensis mortality” value ([6]; 48 h) was 100%.

In the case of CCCCCCCCCCCCCCCCn1cc[n+](C)c1.[Br-] [C16MImBr, 1-hexadecyl-3-methylimidazolium bromide], the IC50 ([1]; read-out: IC50 (CI 95%): concentration of compound that causes 50% of L. amazonensis amastigotes mortality, infected RAW 264.7 macrophages, 48 h) is reported as 0.2 µM, the “SI: selectivity index, ratio of CC50 for RBC hemolysis/IC50 for L. amazonensis amastigotes” value (human erythrocytes) is reported as 114 and the “SI: selectivity index, ratio of CC50 for RBC hemolysis/IC50 for L. amazonensis promastigotes” value (human erythrocytes) is reported as 3.8. The “RBC50 (CI 95%): concentration” value (human erythrocytes; human red blood cells, 37°C) was 22.8 (21.7-24) µM, the “SI: selectivity index, ratio of CC50 for macrophage/IC50 for L. amazonensis amastigotes” value [2] was 80 and the “SI: selectivity index, ratio of CC50 for macrophage/IC50 for L. amazonensis promastigotes” value [2] was 2.7. The “mitochondrial membrane potential (ΔΨm) alteration” value [5] was “significant ΔΨm depolarization”, the CC50 at 48 h (in vitro; RAW cells, 48 h, MTT) was 16 µM and the IC50 [6] was 6 µM. For the same compound, the “mortality of L. amazonensis promastigotes” value ([6]; 5 µM, 48 h) was 42%, the “L. amazonensis mortality” value ([6]; 48 h) was 100% and the IC50 [8] was 29.7 µM.

For CCCCCCCCCCCCCCCCn1cc[n+](C)c1 [C16MImCl, 1-hexadecyl-3-methylimidazolium chloride], the IC50 [7] is given as 1.23 µM and the IC50 [8] is given as 9.9 µM.

In the case of CCCCCCCCCCCCCCCCn1cc[n+](C)c1 [C16MImNTf2, 1-hexadecyl-3-methylimidazolium bis(trifluoromethylsulfonyl)imide], the IC50 [7] is listed as 1.64 µM.

With CCCCCCCCCCCCCCCCn1cc[n+](C)c1 [C16MImPF6, 1-hexadecyl-3-methylimidazolium hexafluorophosphate] the IC50 [1, 10] was 0.3 µM, the “SI: selectivity index, ratio of CC50 for RBC hemolysis/IC50 for L. amazonensis amastigotes” value (human erythrocytes) was 82.7 and the “SI: selectivity index, ratio of CC50 for RBC hemolysis/IC50 for L. amazonensis promastigotes” value (human erythrocytes) was 3.6. For the same compound, the “RBC50 (CI 95%): concentration” value (human erythrocytes; human) was 24.8 (22.9-26.8) µM, the “SI: selectivity index, ratio of CC50 for macrophage/IC50 for L. amazonensis amastigotes” value [2] was 56 and the “SI: selectivity index, ratio of CC50 for macrophage/IC50 for L. amazonensis promastigotes” value [2] was 2.4. The mortality at 5 µM [3] was 37%, the “mitochondrial membrane potential (ΔΨm) alteration” value [5] was “significant ΔΨm depolarization” and the CC50 at 48 h (in vitro) was 16.8 µM. For the same compound, the IC50 [6] was 6.9 µM, the “L. amazonensis mortality” value ([6]; 48 h) was 100% and the IC50 [8] was 26.3 µM.

For CCCCCCCCCCCCCCCC[n+]1ccccc1.O.[Cl-] [C16PyrCl, 1-hexadecylpyridinium chloride monohydrate, reference compound], the “L. amazonensis mortality” value ([6]; 48 h) was 100%.

In the case of OO [H2O2, hydrogen peroxide, reference compound], the “mitochondrial membrane potential (ΔΨm) alteration” value [5] is reported as “mitochondrial depolarization” and the ROS production [9] is reported as “significant elevation in ROS production”.

With C[C@@H]1[C@H](O)[C@@H](C)/C=C/C=C/C=C/C=C/C=C/C=C/C=C/[C@H](O[C@@H]2O[C@H](C)[C@@H](O)[C@H](N)[C@@H]2O)C[C@@H]2O[C@](O)(C[C@@H](O)C[C@@H](O)[C@H](O)CC[C@@H](O)C[C@@H](O)CC(=O)O[C@H]1C)C[C@H](O)[C@H]2C(=O)O [amphotericin B, reference compound] the mortality at 5 µM [3] was 100%, the mortality at 5 µM ([4]; read-out: mortality of L. infantum chagasi promastigotes) was 100% and the “mitochondrial membrane potential (ΔΨm) alteration” value [5] was “mitochondrial depolarization”. For the same compound, the IC50 [6] was 0.4 µM and the ROS production [9] was “significant elevation in ROS production”.
